Experimental data from US4070473A, “Piperidino-butyrophenones” (AB Ferrosan, priority 1973, dated 1978).
Where a name gives a salt, the structure may show the parent alone. Read-outs that look alike come from different tables or passages of the source.

Tests used:
[1] = tested on: aggressive behaviour in male mice; test: Inhibition of aggressive behaviour in male mice (Test 1); format: in vivo; settings: for ED50: Mus musculus, sc, read-out: Inhibition of agression, mice ED50
Description: Methylperon -- formula hereinbefore mentioned (R3 = H; R4 = CH3) chlorpromazine [drawing 23] in each of the following established standard tests: 1. Inhibition of aggressive behaviour in male mice.
1. Valzelli, L. in Aggressive Behaviour, Eds. Garattini and Sigg, p. 70 (1969)

[2] = tested on: Amphetamine antagonism, rats; test: Amphetamine antagonism in rats (antipsychotic effect) (Test 3); format: in vivo; settings: for ED50: Rattus norvegicus, sc, read-out: Amphetamine antagonism, rats ED50; for activity in Test 3 (amphetamine antagonism; antipsychotic/anxiolytic effect), in words: Table-Test No. 3
Description: 3. Amphetamine antagonism in rats (antipsychotic effect).
3. Randrup, A. et al. in Acta Pharmacol. (Kph), 20, 145 (1963)

[3] = Cataleptogenic effect in rats (measure of the extrapyramidal side effects) (Test 4); format: in vivo; settings: rat, in vivo, sc
Description: (§1) 4. Cataleptogenic effect in rats (measure of the extrapyramidal side effects).
(§2) 4. Stille, G. in Schweiz.

[4] = tested on: exploratory behaviour, mice; test: Inhibition of climbing in mice (inhibition of exploratory behaviour) (Test 2); format: in vivo; settings: Mus musculus, sc, read-out: Inhibition of exploratory behaviour, mice ED50
Description: 2. Inhibition of climbing in mice (inhibition of exploratory behaviour).
2. Sandberg, S. in Arzneimittelforschung, 9, 203 (1958)

[5] = tested on: conditioned avoidance response, rats; test: Inhibition of conditioned behaviour (conditioned avoidance response) in rats (Test 5); format: in vivo; settings: Rattus norvegicus, sc, read-out: Inhibition of conditioned avoidance response, rats ED50
Description: 5. Inhibition of conditioned behaviour in rats. These tests were in accord with published test procedures and protocols, for instance: 5.

[6] = Toxicity, subcutaneously on mice; settings: mouse, in vivo, sc
Description: The antipsychotic effect as shown in Test No. 3 is further confirmed by the blocking of apomorphine emesis in dogs. Ref: Janssen, P. A. J. et al. Arzneimittelforschung, 1, 1196 (1965) Furthermore, the compounds have a pronounced serotonine inhibiting effect, Ref: Alps, J. et al. Br. J. Pharmac. 44, 52 (1972) and a strong anti-inflammatory effect (measured with carrageenin-induced edema in rats). Ref: Takashima, T. et al. Arzneimittelforschung 22, 711 (1972) Their toxicity is rather low, 200 - 300 mg/kg. In comparison, the toxicity for haloperidol is 70 mg/kg and for methylperon is 280 mg/kg (all toxicities being performed subcutaneously on mice).

[7] = tested on: Cataleptogenic effect, rats; test: Cataleptogenic effect in rats (measure of the extrapyramidal side effects) (Test 4); format: in vivo; settings: rats, Table-Test No. 4
Description: as §1, §2

[8] = rats, s.c., measure of the extrapyramidal side effects, read-out: Cataleptogenic effect, rats ED50

| Compound | ED50 ([1]; mice, s.c.) [mg/kg] | ED50 ([2]; rats, s.c.) [mg/kg] | ED50 [3, 8] [mg/kg] | ED50 ([4]; mice, s.c.) [mg/kg] | ED50 [1] [mg/kg] | ED50 [2] [mg/kg] | activity in Test 3 (amphetamine antagonism; antipsychotic/anxiolytic effect), in words [2] | ED50 [5] [mg/kg] | ED50 [4] [mg/kg] | ED50 ([5]; rats, s.c.) [mg/kg] | activity in Test 1 (antiaggressive), in words ([1]; Table-Test No. 1) | LD50 [6] [mg/kg] | ED50 [3] [mg/kg] | extrapyramidal / cataleptogenic effect, in words [7] |
| --- | --- | --- | --- | --- | --- | --- | --- | --- | --- | --- | --- | --- | --- | --- |
| CCCCCC1(OCC)CCN(CCCC(=O)c2ccc(F)cc2)CC1 [Example 13] | 0.5 | 0.35 | 6.8 | 1.3 |  |  |  |  |  |  |  |  |  |  |
| CN(C)CCCN1c2ccccc2Sc2ccc(Cl)cc21 [Chlorpromazine, reference compound] |  |  | 4.5 |  | 0.4 | 1.2 | not very active | 4.5 | 0.75 |  |  |  |  |  |
| CCCC1(OC)CCN(CCCC(=O)c2ccc(F)cc2)CC1 [Example 8] | 0.5 | 1 | 6.2 | 3.1 |  |  |  |  |  | 5.5 |  |  |  |  |
| COC1(C(C)C)CCN(CCCC(=O)c2ccc(F)cc2)CC1.Cl [Example 10, gamma-(4-isopropyl-4-methoxy-piperidino)-p-fluorobutyrophenone hydrochloride] | 0.15 | 0.1 | 5 | 1.1 |  |  |  |  |  | 1.2 |  |  |  |  |
| CC1CCN(CCCC(=O)c2ccc(F)cc2)CC1 [Methylperon, reference compound] | 2.2 | 3.5 |  | 2 |  |  | not very active |  |  | 6.8 | not very active | 280 | 12 |  |
| O=C(CCCN1CCC(O)(c2ccc(Cl)cc2)CC1)c1ccc(F)cc1 [Haloperidol, reference compound] |  |  | 0.27 |  | 0.8 | 0.03 |  | 0.15 | 1.3 |  |  | 70 |  | pronounced cataleptogenic effect in rats |
| COC1(C)CCN(CCCC(=O)c2ccc(F)cc2)CC1 [Example 1, gamma-(4-methyl-4-methoxy-piperidino)-p-fluorobutyrophenone] | 0.2 | 0.35 | 10 | 0.65 |  |  |  |  |  | 0.6 |  |  |  |  |
| CCCCOC1(C)CCN(CCCC(=O)c2ccc(F)cc2)CC1.Cl [Example 4, gamma-(4-methyl-4-butoxypiperidino)-p-fluorobutyrophenone hydrochloride] | 0.35 | 0.75 | 20 | 2 |  |  |  |  |  | 2.5 |  |  |  |  |
| CCOC1(C)CCN(CCCC(=O)c2ccc(F)cc2)CC1 [Example 2] | 0.7 | 0.1 | 6 | 1 |  |  |  |  |  | 1.3 |  |  |  |  |
| CCCOC1(C)CCN(CCCC(=O)c2ccc(F)cc2)CC1 [Example 3] | 0.35 | 0.2 | 7 | 1 |  |  |  |  |  | 0.5 |  |  |  |  |
| CCCOC1(CC)CCN(CCCC(=O)c2ccc(F)cc2)CC1 [Example 7] | 0.7 | 0.35 | 6 | 1.2 |  |  |  |  |  |  |  |  |  |  |
| CCOC1(CC)CCN(CCCC(=O)c2ccc(F)cc2)CC1 [Example 6, gamma-(4-ethyl-4-ethoxypiperidino)-p-fluoro-4-butyrophenone hydrochloride] | 0.08 | 0.1 | 5 | 1.4 |  |  |  |  |  | 1.5 |  |  |  |  |
| CCC1(OC)CCN(CCCC(=O)c2ccc(F)cc2)CC1 [Example 5] | 0.7 | 0.1 | 10 | 0.7 |  |  |  |  |  | 1.5 |  |  |  |  |
| CCCCC1(OCC)CCN(CCCC(=O)c2ccc(F)cc2)CC1 [Example 12] | 0.35 | 0.07 | 3 | 1.6 |  |  |  |  |  | 5 |  |  |  |  |
